Results on 16 compounds are retold here after US4988814A, “Tertiary alkyl functionalized piperazine derivatives” (American Home Products Corp., priority 1989, dated 1991).

Experiment [1] concerns the target T1, 5-HT1A serotonin receptor (Rattus norvegicus, UniProt P19327).
T1 construct: 44: 1685-1696, 1985; from tissue
T1 sequence (P19327 1-422): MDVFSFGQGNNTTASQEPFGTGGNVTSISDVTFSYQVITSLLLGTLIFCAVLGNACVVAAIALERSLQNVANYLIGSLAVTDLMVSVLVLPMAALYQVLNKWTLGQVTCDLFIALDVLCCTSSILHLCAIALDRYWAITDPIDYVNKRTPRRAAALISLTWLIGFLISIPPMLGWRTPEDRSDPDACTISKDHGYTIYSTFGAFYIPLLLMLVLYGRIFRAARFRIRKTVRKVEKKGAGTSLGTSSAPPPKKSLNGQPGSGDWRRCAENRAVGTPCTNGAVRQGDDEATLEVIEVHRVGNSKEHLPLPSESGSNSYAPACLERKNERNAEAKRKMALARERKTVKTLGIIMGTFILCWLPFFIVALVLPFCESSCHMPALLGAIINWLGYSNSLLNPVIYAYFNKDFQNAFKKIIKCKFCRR
Briefly: 5-HT1A receptor binding, displacement of [^3 H] 8-OH DPAT (Hall et al.). The settings on record: for inhibition at 0.1 µM / inhibition at 1 µM: read-out: Affinity for 5HT1A Receptor % Inhibition; for IC50: read-out: Affinity for 5HT1A Receptor IC50.
Source text: 8-OH DPAT (dipropylaminotetralin) from the 5-HT1A serotonin receptor by the procedure of Hall et al., J. Neurochem.

The target in a further experiment is T2, D2 dopamine receptor (Rattus norvegicus, UniProt P61169).
T2 construct: from tissue; host or cells: homogenized limbic brain tissue
Briefly: D2 dopamine receptor binding, limbic brain tissue incubated with ^3 H-spiroperiodol. Particulars: for inhibition at 1 µM: read-out: Affinity for D2 Receptor % Inhibition. How it is done: The D2 dopamine receptor binding study was in accordance with a modification of the procedure of Field et al., Brain Res., 136, pp. 578-584 (1977) and Yamamura et al., eds., Neurotransmitter Receptor Binding, Raven Press, N.Y. (1978), wherein homogenized limbic brain tissue is incubated with ^3 H-spiroperiodol and various concentrations of test compounds, filtered and washed and shaken with Hydrofluoro scintillation cocktail (National Diagnostics) and counted in a Packard 460CD scintillation counter.

The next experiment has as its system D2 receptor. The settings on record: prior art; cited from earlier work.
For another experiment, the system named is 5-HT1A receptor. Particulars: prior art; cited from earlier work.

By inhibition is commonly meant the relative decrease from the control value, in per cent. By IC50 is commonly meant the point on the concentration scale where inhibition reaches its midpoint.

SMILES strings stand for the structures.

T2 sequence (P61169 whole entry): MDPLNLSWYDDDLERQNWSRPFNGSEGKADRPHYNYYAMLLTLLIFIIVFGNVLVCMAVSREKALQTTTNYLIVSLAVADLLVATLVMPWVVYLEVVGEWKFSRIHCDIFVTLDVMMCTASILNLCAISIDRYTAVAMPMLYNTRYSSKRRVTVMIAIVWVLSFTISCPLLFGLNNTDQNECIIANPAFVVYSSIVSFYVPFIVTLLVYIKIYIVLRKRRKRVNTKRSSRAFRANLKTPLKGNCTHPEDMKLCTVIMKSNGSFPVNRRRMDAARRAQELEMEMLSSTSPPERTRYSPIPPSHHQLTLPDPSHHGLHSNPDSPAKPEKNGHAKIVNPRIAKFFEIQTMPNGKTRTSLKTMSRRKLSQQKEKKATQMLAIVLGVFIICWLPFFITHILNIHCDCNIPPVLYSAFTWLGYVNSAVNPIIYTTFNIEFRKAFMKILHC

Regarding `COc1ccccc1N1CCN(CC(C(=O)NNC(C)(C)C)c2ccccc2)CC1` (centres unmarked) [Example 26, N-Tert-butyl-3-[1-[4-(2-methoxy)phenyl]piperazinyl]-2-phenyl-propionhydrazide], in experiment [1], the inhibition at 0.1 µM came out at 48%, the inhibition at 1 µM worked out at 96% and the IC50 is 118 nM.

In the case of `COc1ccccc1N1CCN(C[C@@H](C)NC(=O)C2(C)CCCCC2)CC1` [Example 20, (R)-N-[2-[4-(2-Methoxyphenyl)-1-piperazinyl]-1-methylethyl]-1-methylcyclohexane carboxamide], the inhibition at 0.1 µM in experiment [1] was 100%.

For the compound `CC1(C(=O)NCCN2CCN(c3ncccn3)CC2)CCCCC1` [Example 19, N-2-(4-(2-Pyrimidinyl)-1-piperazinyl)ethyl-1-methylcyclohexylcarboxamide], the inhibition at 0.1 µM in experiment [1] turned out to be 67%.

Regarding `COc1ccccc1N1CCN(CCCCNC(=O)C(C)(C)C)CC1` [Example 2, N-[4-[4-(2-Methoxyphenyl)-1-piperazinyl]butyl]-2,2-dimethylpropanamide], the inhibition at 0.1 µM in experiment [1] stood at 100%.

On to `COc1ccccc1N1CCN(CC(C(=O)OC(C)(C)C)c2ccccc2)CC1` (centres unmarked) [Example 12, Tertiary-butyl 3-[1-[4-(2-methoxyphenyl)piperazinyl]]-2-phenylpropanoate], for which, in experiment [1], the inhibition at 0.1 µM was found to be 86%, the inhibition at 1 µM stood at 98% and the IC50 worked out at 11.8 nM.

Take `COc1ccccc1N1CCN(CC(OC(=O)C(C)(C)C)c2ccccc2)CC1` (centres unmarked) [Example 23, 2,2-Dimethylpropanoic acid 2-(4-(2-methoxyphenyl)-piperazin-1-yl)-1-phenylethyl ester]: in experiment [1], the inhibition at 0.1 µM is 27%, the inhibition at 1 µM turned out to be 78% and the 50% inhibitory concentration (IC50) was 270 nM.

Turning to `COc1ccccc1N1CCN(CCNC(=O)NC2(C)CCCCC2)CC1` [Example 18, N-[2-[4-(2-Methoxyphenyl)-1-piperazinyl]ethyl]-N'-(1-methylcyclohexyl)urea], the inhibition at 0.1 µM in experiment [1] was 85%.

On to `COc1ccccc1N1CCN(CCCCNC(=O)NC(C)(C)C)CC1` [Example 1, N-(1,1-Dimethylethyl)-N^1-[4-[4-(2-methoxyphenyl)-1-piperazinyl]butyl]urea], for which, in experiment [1], the inhibition at 0.1 µM was found to be 91%.

With `COc1ccccc1N1CCN(CCCOC(=O)C(C)(C)C)CC1` [Example 4, 2,2-Dimethylpropanoic acid 3-[4-(2-methoxyphenyl)-1-piperazinyl]propyl ester], the inhibition at 1 µM at D2 dopamine receptor stood at 99%; in experiment [1], 98%.

On to `CCCCN1C(=O)C2C(=O)N(CCCCN3CCN(c4ccccc4OC)CC3)C(=O)C(C1=O)C2(C)C` [umespirone], for which the “D2 receptor affinity (in words)” value in the experiment on D2 receptor is given as “high affinity”. Further, the “5-HT1A receptor affinity/activity (in words)” value with 5-HT1A receptor is on record as “high affinity”.

Take `COc1ccccc1N1CCN(CC(OC(=O)NC(C)(C)C)c2ccccc2)CC1` (centres unmarked) [Example 24]: in experiment [1], the inhibition at 0.1 µM worked out at 73%, the inhibition at 1 µM was found to be 97% and the 50% inhibitory concentration (IC50) came to 20 nM.

`O=C1CC2(CCCC2)CC(=O)N1CCCCN1CCN(c2ncccn2)CC1` [buspirone, reference compound]: the “5-HT1A receptor affinity/activity (in words)” value with 5-HT1A receptor is “selective activity”. Further, the “5-HT1A receptor affinity/binding (in words)” value in experiment [1] is “potent affinity”.

In the case of `COc1ccccc1N1CCN(CCOC(=O)C(C)(C)C)CC1` [Example 3, 2,2-Dimethylpropanoic acid 2-[4-(2-methoxyphenyl)-1-piperazinyl]ethyl ester], the inhibition at 1 µM came to 89% at D2 dopamine receptor and 86% in experiment [1].

For `COc1ccccc1N1CCN(CC(C(=O)NC(C)(C)C)c2ccccc2)CC1` (centres unmarked) [Example 13, N-Tertiary-butyl 3-[4-(2-methoxyphenyl)piperazinyl]-2-phenylpropanamide], the IC50 at D2 dopamine receptor (read-out: Affinity for D2 Receptor IC50) came to 1740 nM.

Turning to `COc1ccccc1N1CCN(CCNC(=O)C2(C)CCCCC2)CC1` [Example 15, N-[2-[4-(2-Methoxyphenyl)-1-piperazinyl)ethyl]-1-methylcyclohexanecarboxamide], in experiment [1], the inhibition at 0.1 µM was found to be 98%.

`CC(C)(C)C(=O)OCCCN1CCN(c2ccccc2Cl)CC1` [Example 5, 2,2-Dimethylpropanoic acid 3-[4-(2-chlorophenyl)-1-piperazinyl]propyl ester]: the inhibition at 1 µM at D2 dopamine receptor was determined as 58%; in experiment [1], 98%.
